Literature values in patent publication US20130096948A1, “METHODS FOR DIAGNOSIS, PROGNOSIS AND TREATMENT” (Nodality, Inc., priority 2009, published 2013).
Where two headings read alike, the source gives them in different places.

Row | peak plasma concentration (high dose Cytarabine, 3 g/m2) | peak plasma concentration (standard dose of Cytarabine, 100 mg/m2) | peak plasma concentration (Daunorubicin at 25 mg/m2) | peak plasma concentration (Daunorubicin at 50 mg/m2) | Structure (SMILES)
1 | 2 µM | approximately 40 nM | – | – | Nc1ccn([C@@H]2O[C@H](CO)[C@@H](O)[C@@H]2O)c(=O)n1 [Cytarabine]
2 | – | – | 50 ng/mL | 200 ng/mL | COc1cccc2c1C(=O)c1c(O)c3c(c(O)c1C2=O)C[C@@](O)(C(C)=O)C[C@@H]3O[C@H]1C[C@H](N)[C@H](O)[C@H](C)O1 [Daunorubicin]
